Data as given in patent publication US9018208B2, “Heterocycles as potassium channel modulators” (Icagen Inc., priority 2007, dated 2015).
Like-named read-outs stand apart in the source and are kept apart here.

System: SH-SY5Y M-currents (KCNQ2, KCNQ3 and KCNQ5)
Test: SH-SY5Y native cell line FLIPR assay (voltage-sensitive dye DiBAC)
Type: cell-based, mouse neuroblastoma, rat glioma hybrid cell line
Method in brief: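 Response is peak DiBAC fluorescence change, normalised to the maximum from a positive control agent, sampled every 30 s over 25 min. Before compound addition, SH-SY5Y cells differentiated with PGE1 plus isomethylbutylxanthine were dye-loaded for 1 h in EBSS with […] DiBAC.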

[1] = SH-SY5Y native cell line, FLIPR assay (Table 3), read-out: SH-SY5Y EC50
[2] = FLIPR assay, SH-SY5Y native cell line, Table 1, read-out: SH-SY5Y EC50
[3] = FLIPR assay, SH-SY5Y native cell line, Table 2, read-out: SH-SY5Y EC50

| EC50 [3] | SMILES | further results |
| --- | --- | --- |
| 500 to 3000 nM | CC(CC(=O)Nc1nc2ccc(F)cn2c1-c1cccc(Cl)c1)C(F)(F)F (stereo not drawn) [Compound 315, N-(3-(3-chlorophenyl)-6-fluoroimidazo[1,2-a]pyridin-2-yl)-4,4,4-trifluoro-3-methylbutanamide] |  |
| 3000 to 10000 nM | COc1ccn2c(-c3ccc(C(F)(F)F)cc3)c(NC(=O)CC(F)(F)F)nc2c1 [Compound 307, 3,3,3-trifluoro-N-(7-methoxy-3-(4-(trifluoromethyl)phenyl)imidazo[1,2-a]pyridin-2-yl)propanamide] |  |
| < 500 nM | Cc1cc(-c2c(NC(=O)CC(C)(C)C)nc3ccc(F)cn23)ccc1Cl [Compound 257, N-(3-(4-chloro-3-methylphenyl)-6-fluoroimidazo[1,2-a]pyridin-2-yl)-3,3-dimethylbutanamide] |  |
| 500 to 3000 nM | O=C(Cc1ccc(F)cc1)Nc1nc2ccc(Cl)nn2c1-c1ccc(C(F)(F)F)cc1 [Compound 272, N-(6-chloro-3-(4-(trifluoromethyl)phenyl)imidazo[1,2-b]pyridazin-2-yl)-2-(4-fluorophenyl)acetamide] |  |
| < 500 nM | COc1ccc2nc(NC(=O)CC(C)(C)C)c(-c3cccc(OC(F)(F)F)c3)n2n1 [Compound 346, N-(6-methoxy-3-(3-(trifluoromethoxy)phenyl)imidazo[1,2-b]pyridazin-2-yl)-3,3-dimethylbutanamide] |  |
| < 500 nM | O=C(Nc1nc2ccc(F)cn2c1-c1cccc(C(F)(F)F)c1)C1CCC(F)(F)CC1 [Compound 328, 4,4-difluoro-N-(6-fluoro-3-(3-(trifluoromethyl)phenyl)imidazo[1,2-a]pyridin-2-yl)cyclohexanecarboxamide] |  |
| 3000 to 10000 nM | O=C(Nc1nc2ccc(F)cn2c1-c1ccc(OC(F)(F)F)cc1)[C@@H]1CCCO1 [Compound 244, (S)—N-(6-fluoro-3-(4-(trifluoromethoxy)phenyl)imidazo[1,2-a]pyridin-2-yl)tetrahydrofuran-2-carboxamide] |  |
| 3000 to 10000 nM | O=C(Nc1nc2ccc(F)cn2c1-c1ccc(OC(F)(F)F)cc1)C1CCOC1 (stereo not drawn) [Compound 248, N-(6-fluoro-3-(4-(trifluoromethoxy)phenyl)imidazo[1,2-a]pyridin-2-yl)tetrahydrofuran-3-carboxamide] |  |
| 500 to 3000 nM | O=C(CCC(F)(F)F)Nc1nc2ccc(F)cn2c1-c1cccc(C(F)(F)F)c1 [Compound 281, 4,4,4-trifluoro-N-(6-fluoro-3-(3-(trifluoromethyl)phenyl)imidazo[1,2-a]pyridin-2-yl)butanamide] |  |
| 500 to 3000 nM | O=C(Nc1nc2ccc(F)cn2c1-c1ccc(C(F)(F)F)cc1)N1CCC(F)(F)CC1 [Compound 345, 4,4-difluoro-N-(6-fluoro-3-(4-(trifluoromethyl)phenyl)imidazo[1,2-a]pyridin-2-yl)piperidine-1-carboxamide] |  |

Continued, molecule first:

| SMILES | EC50 [3] | further results |
| --- | --- | --- |
| CC(C)(C)CC(=O)Nc1nc2ccc(F)cn2c1-c1cccnc1 [Compound 348, N-(6-fluoro-3-(pyridin-3-yl)imidazo[1,2-a]pyridin-2-yl)-3,3-dimethylbutanamide] |  | EC50 [1]: 3000 to 10000 nM |
| Cc1cccc2nc(NC(=O)CC(C)(C)C)cn12 [Compound 9, 3,3-dimethyl-N-(5-methylimidazo[1,2-a]pyridin-2-yl)butanamide] |  | EC50 [2]: 3000 to 10000 nM |
| CC(C)C(C)C(=O)Nc1nc2ccc(F)cn2c1-c1ccc(F)cn1 (stereo not drawn) [Compound 368, N-(6-fluoro-3-(5-fluoropyridin-2-yl)imidazo[1,2-a]pyridin-2-yl)-2,3-dimethylbutanamide] |  | EC50 [1]: 3000 to 10000 nM |
| O=C(Cc1ccc(F)cc1)Nc1nc2ccc(F)cn2c1-c1ccccc1 [Compound 92, N-(6-fluoro-3-phenylimidazo[1,2-a]pyridin-2-yl)-2-(4-fluorophenyl)acetamide] | 500 to 3000 nM | EC50 (read-out: SH-SY5Y_EC50): 732 nM |
| Cc1nc(-c2c(NC(=O)CC(C)(C)C)nc3ccccn23)cs1 [Compound 416, 3,3-dimethyl-N-(3-(2-methylthiazol-4-yl)imidazo[1,2-a]pyridin-2-yl)butanamide] |  | EC50 [1]: 3000 to 10000 nM |
| Cc1cccc2nc(NC(=O)C(F)(F)F)cn12 [Compound 8, 2,2,2-trifluoro-N-(5-methylimidazo[1,2-a]pyridin-2-yl)acetamide] |  | EC50 [2]: 3000 to 10000 nM |
| CC(C)(C)CC(=O)N(C(=O)CC(C)(C)C)c1nc2ccc(F)cn2c1-c1nc2ccccc2s1 [Compound 358, N-(3-(benzo[d]thiazol-2-yl)-6-fluoroimidazo[1,2-a]pyridin-2-yl)-N-(3,3-dimethylbutanoyl)-3,3-dimethylbutanamide] |  | EC50 [1]: 3000 to 10000 nM |
| CC(CC(=O)Nc1nc2ccccn2c1-c1cc(C(F)(F)F)ccn1)C(F)(F)F (stereo not drawn) [Compound 405, 4,4,4-trifluoro-3-methyl-N-(3-(4-(trifluoromethyl)pyridin-2-yl)imidazo[1,2-a]pyridin-2-yl)butanamide] |  | EC50 [1]: 500 to 3000 nM |
| O=C(Cc1ccc(F)cc1F)Nc1nc2ccc(F)cn2c1-c1ccc(F)cc1 [Compound 136, 2-(2,4-difluorophenyl)-N-(6-fluoro-3-(4-fluorophenyl)imidazo[1,2-a]pyridin-2-yl)acetamide] | 500 to 3000 nM |  |
| O=C(Nc1nc2ccc(C(F)(F)F)cn2c1CC1CCCCC1)C1CCCC1 [Compound 52, N-(3-(cyclohexylmethyl)-6-(trifluoromethyl)imidazo[1,2-a]pyridin-2-yl)cyclopentanecarboxamide] |  | EC50 [2]: < 500 nM |
| O=C(Cc1cccc(Cl)c1)Nc1nc2ccc(C(F)(F)F)cn2c1C1CCCCC1 [Compound 44, 2-(3-chlorophenyl)-N-(3-cyclohexyl-6-(trifluoromethyl)imidazo[1,2-a]pyridin-2-yl)acetamide] |  | EC50 [2]: < 500 nM |
| Cc1ccc2nc(NC(=O)C3CCC(F)(F)CC3)c(-c3nccs3)n2n1 [Compound 389, 4,4-difluoro-N-(6-methyl-3-(thiazol-2-yl)imidazo[1,2-b]pyridazin-2-yl)cyclohexanecarboxamide] |  | EC50 [1]: 3000 to 10000 nM |
| CC(C)CCc1c(NC(=O)Cc2ccc(F)cc2)nc2ccc(C(F)(F)F)cn12 [Compound 39, 2-(4-fluorophenyl)-N-(3-isopentyl-6-(trifluoromethyl)imidazo[1,2-a]pyridin-2-yl)acetamide] |  | EC50 [2]: < 500 nM |
| O=C(Cc1ccccc1)Nc1nc2cc(C(F)(F)F)ccn2c1-c1ccccc1 [Compound 101, 2-phenyl-N-(3-phenyl-7-(trifluoromethyl)imidazo[1,2-a]pyridin-2-yl)acetamide] | 500 to 3000 nM |  |
| O=C(Cc1ccccc1)Nc1nc2cc(C(F)(F)F)ccn2c1-c1ccc(F)cc1F [Compound 124, N-(3-(2,4-difluorophenyl)-7-(trifluoromethyl)imidazo[1,2-a]pyridin-2-yl)-2-phenyl acetamide] | 500 to 3000 nM |  |
| CC(C)CCc1c(NC(=O)C2CCCC2)nc2ccc(C(F)(F)F)cn12 [Compound 53, N-(3-isopentyl-6-(trifluoromethyl)imidazo[1,2-a]pyridin-2-yl)cyclopentanecarboxamide] |  | EC50 [2]: < 500 nM |
| O=C(Cc1ccc(F)cc1)Nc1nc2ccc(F)cn2c1-c1ccc(F)cc1F [Compound 117, N-(3-(2,4-difluorophenyl)-6-fluoroimidazo[1,2-a]pyridin-2-yl)-2-(4-fluorophenyl)acetamide] | 500 to 3000 nM |  |
| O=C(Cc1ccccc1)Nc1nc2ccc(F)cn2c1-c1ccc(F)c(F)c1 [Compound 211, N-(3-(3,4-difluorophenyl)-6-fluoroimidazo[1,2-a]pyridin-2-yl)-2-phenylacetamide] | < 500 nM |  |
| CC(C)(C)CC(=O)Nc1nc2ccc(C(F)(F)F)cn2c1C1CCCCC1 [Compound 33, N-(3-cyclohexyl-6-(trifluoromethyl)imidazo[1,2-a]pyridin-2-yl)-3,3-dimethylbutanamide] |  | EC50 [2]: < 500 nM |
| O=C(Cc1ccc(F)cc1)Nc1nc2ccc(F)cn2c1-c1ccc(OC(F)(F)F)cc1 [Compound 154, N-(6-fluoro-3-(4-(trifluoromethoxy)phenyl)imidazo[1,2-a]pyridin-2-yl)-2-(4-fluorophenyl)acetamide] | < 500 nM |  |
| Cc1cccc2nc(NC(=O)CC(C)(C)C)c(C3CC3)n12 [Compound 81, N-(3-cyclopropyl-5-methylimidazo[1,2-a]pyridin-2-yl)-3,3-dimethylbutanamide] |  | EC50 [2]: 3000 to 10000 nM |
| CC(C)(C)CC(=O)Nc1nc2ccc(F)cn2c1-c1ccccc1Cl [Compound 158, N-(3-(2-chlorophenyl)-6-fluoroimidazo[1,2-a]pyridin-2-yl)-3,3-dimethylbutanamide] | 500 to 3000 nM |  |
| O=C(Nc1nc2ccc(F)cn2c1-c1ccc(OC(F)(F)F)cc1)[C@H]1CCCO1 [Compound 243, (R)—N-(6-fluoro-3-(4-(trifluoromethoxy)phenyl)imidazo[1,2-a]pyridin-2-yl)tetrahydrofuran-2-carboxamide] | 3000 to 10000 nM |  |
| CC(C)(C)CC(=O)Nc1nc2ccc(F)cn2c1-c1ccc(F)cn1 [Compound 352, N-(6-fluoro-3-(5-fluoropyridin-2-yl)imidazo[1,2-a]pyridin-2-yl)-3,3-dimethylbutanamide] |  | EC50 [1]: 500 to 3000 nM |
| CC(C)(C)OCC(=O)Nc1nc2ccc(F)cn2c1-c1ccc(C(F)(F)F)cc1 [Compound 206, 2-tert-butoxy-N-(6-fluoro-3-(4-(trifluoromethyl)phenyl)imidazo[1,2-a]pyridin-2-yl)acetamide] | 3000 to 10000 nM |  |
| CC(C)(C)CC(=O)Nc1nc2ccc(F)cn2c1-c1nccc(C(F)(F)F)n1 [Compound 377, N-(6-fluoro-3-(4-(trifluoromethyl)pyrimidin-2-yl)imidazo[1,2-a]pyridin-2-yl)-3,3-dimethylbutanamide] |  | EC50 [1]: 3000 to 10000 nM |
| CC(=O)OCC(C)(C)CC(=O)Nc1nc2ccc(F)cn2c1-c1ccc(C(F)(F)F)cc1 [Compound 189, 4-(6-fluoro-3-(4-(trifluoromethyl)phenyl)imidazo[1,2-a]pyridin-2-ylamino)-2,2-dimethyl-4-oxobutyl acetate] | 3000 to 10000 nM |  |
| CC(C)CC(=O)Nc1nc2ccc(C(F)(F)F)cn2c1CC(C)(C)C [Compound 63, 3-methyl-N-(3-neopentyl-6-(trifluoromethyl)imidazo[1,2-a]pyridin-2-yl)butanamide] |  | EC50 [2]: 500 to 3000 nM |
